Results: patent US10874685B2, “Pancreatic cancer therapy and diagnosis” (Deutsches Krebsforschungszentrum Stiftung des Öffentlichen …, priority 2014, dated 2020)
“Also recorded” adds a separate entry of the source.

Key:
[1] = tested on: pancreatic cancer cell lines (PANC-1, CFPAC-1, CAPAN-1, MIAPaCa-2, BXPC-3); assay: Sulforhodamine B (SRB) cytotoxicity assay on pancreatic cancer cell lines; format: cell-based, human; conditions: increasing concentration, 72 h
Protocol: (§1) PANC-1, CFPAC-1, CAPAN-1, MIAPaCa-2, BXPC-3 and fibroblast cells were seeded for 24 h and were exposed to increasing concentration of Pimozide and vehicle for 72 h (FIG. 3A). The same procedure was followed for treatment of cancer cell lines with L741 (FIG. 3B). Cell viability was characterized using a SRB assay. Values are the mean+/−SD of six independent experiments.
(§2) Five pancreatic ductal cancer cell lines with various degree of differentiation were obtained from American Type Culture Collection (Rockville, USA) and Normal Human Dermal Fibroblasts (NHDF) obtained from PromoCell. BXPC-3 (moderately differentiated) as well as poorly differentiated human pancreatic cancer cell lines, PANC-1 and MIAPaCa-2, have been established from primary tumor. AsPC-1, CAPAN-1 and CFPAC-1 which represent well differentiated cell lines was isolated from ascites and liver metastasis of pancreas adenocarcinoma. All cell lines contain mutation in P53 whereas K-ras mutation reported in all with the exception of BxPc3. BRCA2 mutation just reported in CAPAN-1 cells.
(§3) Sulforhodamine B sodium salt (sigma) was used to assess cell viability and IC50 determination of pancreatic cancer cells. […] Cell viability was specified by using plate reader (TECAN) with measuring of absorbance at 570 and 650 nm (background) in treated or untreated 96 well plate.

[2] = tested on: Fibroblast (non-cancer cells); assay: Sulforhodamine B (SRB) cytotoxicity assay on fibroblasts; format: cell-based, human; conditions: increasing concentration, 72 h
Protocol: as §1, §2, §3

[3] = tested on: MIAPaCa-2 cells; assay: Orthotopic pancreatic tumor mouse model treated with DRD2 antagonists; format: in vivo, mice; conditions: compared to vehicle
Protocol: Two million MIAPaCa-2 cells were resuspended in 10 μL Matrigel (BD Biosciences, San Jose, Calif.) were orthotopically implanted into the tail of the pancreas of 6-week-old Nod scid gamma animals (Jackson Labs, Bar Harbor, Me.) (day 1). When tumors were palpable (day 27), mice were randomized into 2 groups (n=7 in control group and n=9 in haloperidol group) and injected intraperitoneally with either haloperidol (10 mg/kg) or solvent (dimethylsulfoxide [DMSO] control group) for 12 days. The experiment was terminated when control mice appeared moribund. Weight of the animal and final tumor weight and volume were measured.

[4] = tested on: KPC-023, KPC-01 and KPC-LM pancreatic cancer cell lines; assay: Viability of primary and metastatic pancreatic cancer cell lines isolated from KPC mice; format: cell-based; conditions: primary (KPC-023, KPC-01) and metastatic (KPC-LM) lines
[5] = tested on: MIAPaCa-2, PANC-1 and AsPC-1 cells; assay: Glucose uptake measurement (labelled 2-DG) in PDAC cell lines; format: cell-based, human; conditions: all three cell lines; relative to DMSO control
From the text: (§4) Measurement of 2-deoxy-D-glucose uptake shown on the y-axis relative to control by PDAC cell lines (MIAPaCa2, left; PANC-1, middle; AsPC1, right) treated with DMSO (C), pimozide (P) or haloperidol (H) (FIG. 10A). Abundance of free cholesterol, as measured by staining with filipin, after treatment with haloperidol (H) or pimozide (P) in PDAC cell lines (MIAPaCa2, left; PANC-1, middle; AsPC1, right) (FIG. 10B top). Representative micrographs of filipin-labelled cholesterol. PDAC (MIAPaCa2, top; PANC-1, middle; AsPC1, bottom) cells were seeded for 24 hours and treated with 10 μM haloperidol (H) or pimozide (P) or DMSO for 18 hours (FIG. 10B bottom). Red-fluorescence represents propidium iodide (PI)-stained nuclei and blue-fluorescence represents filipin-stained cholesterol. mRNA levels of genes relative to R-actin shown on the y-axis involved in cholesterol biosynthesis (from left to right: SREBP1, SREBP2, INSIG1, HMGCR, LDLR) measured by qRT-PCR 18 hours post-treatment with DMSO (C), haloperidol (H) or pimozide (P) in three PDAC cell lines (MIAPaCa2, top; PANC-1, middle; AsPC1, bottom) (FIG. 10C).
The induction effect of pimozide or haloperidol on labeled 2-DG uptake in cancer cells were determined from measurement of the fluorescence intensity of cell lysates. […]

[6] = tested on: SREBP1, SREBP2, INSIG1, HMGCR, LDLR mRNA; assay: qRT-PCR of cholesterol biosynthesis genes in PDAC cell lines; format: cell-based, human; conditions: qRT-PCR 18 hours post-treatment; relative to actin
From the text: as §4
For mice xenograft tissue samples and cultured cells, the miRNeasy kit (Qiagen, Valencia, Calif.) was used to extract total RNA. […] Quantification values were calculated according to a standard curve method created from a dilution series. […]

O=c1[nH]c2ccccc2n1C1CCN(CCCC(c2ccc(F)cc2)c2ccc(F)cc2)CC1 [pimozide]
cell viability of pancreatic cancer cell lines [1]: Potent toxicity effect; also recorded: dose dependent toxicity effect | cell viability of fibroblasts versus cancer cells [2]: not as much to Fibroblast | metastatic dissemination [3]: reduces tumor volume, metastasis | tumor volume ([3]; haloperidol 10 mg/kg intraperitoneally for 12 days): reduces tumor volume | viability of KPC mouse pancreatic cancer cell lines [4]: sensitive; also recorded: Dose-dependent effects | glucose uptake (intracellular labelled 2-deoxy-D-glucose) [5]: elevated uptake of glucose; also recorded: enhanced glucose and cholesterol uptake | expression of genes involved in lipogenesis / cholesterol biosynthesis [6]: inducing expression of genes involved in lipogenesis
